Source: ChEMBL document CHEMBL6083254, “Optimization of B-Ring-Functionalized Antimalarial Tambjamines and Prodiginines” (J Med Chem, 2024)
Several values for one entry are separate records, joined by “and”; a condition that tells them apart may be missing. Identical values can stand only once. Activity calls are given as the source filed them. The calls are words filed in the database; no cut-off is given here.

Assays:
[1] = Metabolic stability in human liver microsomes assessed as half life measured upto 60 mins LC-MS analysis
Plasmodium falciparum [2] = assay: microbe, parasite or virus in culture; conditions: D6, 72 h
[3] = Metabolic stability in human liver microsomes assessed as intrinsic clearance measured upto 60 mins LC-MS analysis
[4] = (§1) Cytotoxicity against human HepG2 cells assessed as cell viability incubated for 72 hrs by MTT assay; format: toxicity, cell-based; conditions: human, HepG2 cells
Plasmodium falciparum [5] = assay: microbe, parasite or virus in culture; conditions: Tm90-C2B, 72 h
Plasmodium falciparum [6] = assay: microbe, parasite or virus in culture; conditions: Dd2, 72 h
[7] = Metabolic stability in mouse liver microsomes assessed as intrinsic clearance measured upto 60 mins LC-MS analysis
[8] = Metabolic stability in mouse liver microsomes assessed as half life measured upto 60 mins LC-MS analysis
Plasmodium yoelii [9] = assay: Antiplasmodial activity against asexual erythrocytic stage of Plasmodium yoelii infected in female CFI mouse model assessed as reduction in parasitemia at 1 mg/kg, po administered once daily for 4 days and measured on day 5 by Giemsa staining based microscopic analysis relative to control; format: functional
in vitro = conditions: human
Description: Selectivity index, ratio of IC50 for cytotoxicity against human HepG2 cells assessed as cell viability to IC50 for antiplasmodial activity against asexual erythrocytic stage of Plasmodium falciparum D6 assessed as inhibition of parasitic growth incubated

[10] = Aqueous solubility of compound in PBS buffer at pH 7.4 incubated for 90 mins by UV-vis spectroscopic analysis; conditions: pH 7.4, 1.5 h
Plasmodium yoelii [11] = assay: Antiplasmodial activity against asexual erythrocytic stage of Plasmodium yoelii infected in female CFI mouse model at 25 mg/kg, po administered once daily for 4 days and measured on day 5 by Giemsa staining based microscopic analysis; format: functional, organism-based; conditions: time 5.0 day
Plasmodium yoelii [12] = assay: Antiplasmodial activity against asexual erythrocytic stage of Plasmodium yoelii infected in female CFI mouse model assessed as reduction in parasitemia at 10 mg/kg, po administered once daily for 4 days and measured on day 5 by Giemsa staining based microscopic analysis relative to control; format: functional
Plasmodium yoelii [13] = assay: Antiplasmodial activity against asexual erythrocytic stage of Plasmodium yoelii infected in female CFI mouse model assessed as reduction in parasitemia at 3 mg/kg, po administered once daily for 4 days and measured on day 5 by Giemsa staining based microscopic analysis relative to control; format: functional
Plasmodium yoelii [14] = assay: Antiplasmodial activity against asexual erythrocytic stage of Plasmodium yoelii infected in female CFI mouse model assessed as reduction in parasitemia at 25 mg/kg, po administered once daily for 4 days and measured on day 5 by Giemsa staining based microscopic analysis relative to control; format: functional; design: scale not given: the % may be the effect or the level left; conditions: time 5 day
Plasmodium yoelii [15] = assay: Antiplasmodial activity against asexual erythrocytic stage of Plasmodium yoelii infected in female CFI mouse model at 10 mg/kg, po administered once daily for 4 days and measured on day 5 by Giemsa staining based microscopic analysis; format: functional, organism-based; conditions: time 5.0 day
HepG2 = assay: as §1; format: toxicity, cell-based; conditions: hepg2
Plasmodium yoelii [16] = assay: Antiplasmodial activity against asexual erythrocytic stage of Plasmodium yoelii infected in po dosed female CFI mouse model assessed as reduction in parasitemia administered once daily for 4 days and measured on day 5 by Giemsa staining based microscopic analysis; format: functional; conditions: 120 h, time 5 day
[17] = Plasmodium yoelii, po, read-out: ED50

| SMILES | half-life at 1 h [1] [min] | IC50 (Plasmodium falciparum [2]) [nM] | microsomal CLint at 1 h [3] [µL/min/mg] | IC50 (Plasmodium falciparum [5]) [nM] | IC50 (Plasmodium falciparum [6]) [nM] | microsomal CLint at 1 h [7] [µL/min/mg] | half-life at 1 h [8] [min] | Activity (Plasmodium yoelii [9]; time 5.0 day) | selectivity ratio (in vitro) | solubility [10] [µM] | Activity (Plasmodium yoelii [11]) | Activity (Plasmodium yoelii [12]; time 5.0 day) | Activity (Plasmodium yoelii [13]; time 5.0 day) | Activity (Plasmodium yoelii [14]) [%] | Activity (Plasmodium yoelii [9]; time 5 day) [%] | IC50 (HepG2) [nM] | Activity (Plasmodium yoelii [12]; time 5 day) [%] | also measured |
| --- | --- | --- | --- | --- | --- | --- | --- | --- | --- | --- | --- | --- | --- | --- | --- | --- | --- | --- |
| CCCCCC1=C/C(=C\c2[nH]c(-c3ccc[nH]3)cc2OC)N=C1C | > 60 | 8.01 | 13.1 | 8.8 | 7.32 | 61.2 | 23 |  |  |  |  |  |  |  |  |  |  | IC50 at 72 h [4]: 1070 nM |
| CCCCCCCCCCCc1ccc(/C=C2\N=C(c3ccc[nH]3)C=C2Oc2ccccc2)[nH]1.Cl | 59.2 |  | 23.4 | 64.3 | 80.9 | 85.7 | 16.2 | inactive | > 2440 | 8.19 | inactive | inactive | inactive | 100 |  |  |  | IC50 at 72 h [4]: > 200000 nM |
| CCCCCc1cc(/C=C2\N=C(c3ccc[nH]3)C=C2OC(C)C)[nH]c1C.Cl |  | 1.09 |  | 1.56 | 0.27 |  |  |  | 3190 |  | Active |  |  | 100 | 4.2 | 3480 | 100 | Activity (Plasmodium yoelii [15]): inactive; ED50 (Plasmodium yoelii [16]; [17]): 2.25 mg/kg/day; ED50 (Plasmodium yoelii [16]): 4.42 mg/kg/day; Activity (Plasmodium yoelii [13]; time 5 day): 71.8% |
| CCCCCc1cc(/C=C2\N=C(c3ccc[nH]3)C=C2OCCC)[nH]c1C.Cl | 43.6 | 0.307 | 31.8 | 4.58 | 0.501 | 40.8 | 34 |  | 11600 | 18.5 |  |  |  | 100 | 23.9 | 3560 | 100 | Activity (Plasmodium yoelii [15]): inactive; ED50 (Plasmodium yoelii [16]): 1.46 mg/kg/day and 3 mg/kg/day; Activity (Plasmodium yoelii [13]; time 5 day): 89.9% |
| CCCCCc1cc(/C=C2\N=C(c3ccc[nH]3)C=C2OCc2ccc(OC(F)(F)F)cc2)[nH]c1C.Cl |  | 7.24 |  | 12.5 | 7.97 |  |  | inactive | 900 |  | inactive | inactive | inactive | 100 |  | 6520 |  |  |
| CCCCCCCCCCCc1ccc(/C=C2\N=C(c3ccc[nH]3)C=C2OCC)[nH]1.Cl | > 60 | 4.41 | 19.1 | 4.02 | 3.45 | 33.1 | 41.9 | inactive | 4750 | < 3.125 | inactive | inactive | inactive | 100 |  | 21000 |  |  |
| CCCCCCCCCCCc1ccc(/C=C2\N=C(c3ccc[nH]3)C=C2OC(C)C)[nH]1.Cl |  | 26.9 |  | 35.6 | 18.2 |  |  | inactive | 3240 |  | inactive | inactive | inactive | 100 |  | 87300 |  |  |
| CCCCCc1cc(/C=C2\N=C(c3ccc[nH]3)C=C2Oc2ccc(OC(F)(F)F)cc2)[nH]c1C.Cl | 59.4 | 8.61 | 23.3 | 9.54 | 7.4 | 36.4 | 38 |  | 1910 | < 3.125 | Active |  |  | 100 | 49.1 | 16500 | 100 | Activity (Plasmodium yoelii [15]): inactive; ED50 (Plasmodium yoelii [16]; [17]): 1.01 mg/kg/day; Activity (Plasmodium yoelii [13]; time 5 day): 92% |
| CCN(CC)CCCC(C)Nc1ccnc2cc(Cl)ccc12 (stereo not drawn) [CHLOROQUINE] |  |  |  |  |  |  |  | inactive |  |  | inactive | inactive | inactive | 100 |  |  |  |  |
| CCCCCc1cc(/C=C2\N=C(c3ccc[nH]3)C=C2OCc2ccc(Cl)cc2)[nH]c1C.Cl |  | 7.13 |  | 8.73 | 4.44 |  |  | inactive | 1480 |  |  | inactive | inactive | 97.1 |  | 10500 |  |  |
| CCCCCc1cc(/C=C2\N=C(c3ccc[nH]3)C=C2OCc2ccccc2)[nH]c1C.Cl | > 60 | 7.91 | 3.89 | 9.73 | 4.25 | 7.33 | > 60 |  | 896 | < 3.125 |  |  |  | 100 | 16.8 | 7090 | 86.9 | Activity (Plasmodium yoelii [13]; time 5 day): 43.3% |
| C1=C(OCc2ccccc2)/C(=C/NC2CCCCCC2)N=C1c1ccc[nH]1.Cl | 16.3 | 19 | 85.1 | 21.3 | 17.3 | 16 | > 60 |  | 194 | 15.8 |  |  |  | 59.5 |  | 3680 |  |  |
| CCCCCc1cc(/C=C2\N=C(c3ccc[nH]3)C=C2Oc2ccc(Cl)cc2)[nH]c1C.Cl |  | 7.89 |  | 10 | 7.03 |  |  |  | 1210 |  | Active |  |  |  | 5.01 | 9570 | 100 | ED50 (Plasmodium yoelii [16]; [17]): 1.15 mg/kg/day; ED50 (Plasmodium yoelii [16]): 1.25 mg/kg/day |
| CC(C)OC1=CC(c2ccc[nH]2)=N/C1=C\NC1CCCCCC1.Cl | 12.2 | 3.51 | 114 | 5.42 | 3.82 | 76.8 | 18 |  | 1020 | 157 |  |  |  | 43.6 |  | 3580 |  |  |
| CCCCCCCCCCCc1ccc(/C=C2\N=C(c3ccc[nH]3)C=C2OCc2ccccc2)[nH]1.Cl | > 60 |  | 7.29 | 22.4 | 26.4 | 4.03 | > 60 | inactive | 2020 | < 3.125 |  | inactive | inactive | 62.3 |  | 53600 |  |  |
| CCCCCc1cc(/C=C2\N=C(c3ccc[nH]3)C=C2OCC)[nH]c1C.Cl |  | 2.45 |  | 7.29 | 1.31 |  |  |  | 1500 |  |  |  |  | 100 | 2.1 | 3680 | 100 | Activity (Plasmodium yoelii [15]): inactive; ED50 (Plasmodium yoelii [16]; [17]): 3.12 mg/kg/day; ED50 (Plasmodium yoelii [16]): 5.61 mg/kg/day; Activity (Plasmodium yoelii [13]; time 5 day): 46.6% |
| CCCCCCCCCCCc1ccc(/C=C2\N=C(c3ccc[nH]3)C=C2OCCC)[nH]1.Cl |  | 6.71 |  | 8.01 | 7.56 |  |  | inactive | 2810 |  | inactive | inactive | inactive | 100 |  | 18900 |  |  |
| CCCCCCCCCCCC1=N/C(=C\c2[nH]c(-c3ccc[nH]3)cc2OC)C=C1 [UNDECYLPRODIGININE] |  | 7.22 |  | 8.21 | 7.54 |  |  | inactive | 237 |  | Active | inactive | inactive | 100 |  |  |  | IC50 at 72 h [4]: 1710 nM |
